Laboratory results published in patent US20200188466A1, “COMPOSITIONS OF SCHISANDRA EXTRACTS AND METHODS THEREOF” (Reyoung Corporation, priority 2017, published 2020).

Experiment: Toxicological study: serum chemistry after celastrol with and without Schisandrin A
Assay type: in vivo, Sprague Dawley rats
Settings: rats, 24 hours after celastrol 1.8 mg/kg oral
Procedure: 42 Male Sprague Dawley rats (weight, 210-250 g) were maintained on a 12-hour light/dark cycle with free access to water and lab chow for 10-14 h prior to the experiment. Rats were randomly divided into 7 groups (n=6 each) and groups 2-7 received 0 mg/kg, 5.5 mg/kg, and 11.0 mg/kg, 22.0 mg/kg, 44.0 mg/kg and 88.0 mg/kg of Schisandrin A in 1% CMC-Na (300-800 cps) via oral administration, respectively. After 5 minutes, all the groups received 1.8 mg/kg of celastrol in a solution of 2% DMSO-98% sterile water via oral administration.
At 24 hours of celastrol treatment, blood was collected from the rats in plasma kinetic study.

[1] = Group 1, no Schisandrin A dose stated
[2] = Group 2, Schisandrin A 0 mg/kg oral
[3] = Group 3, Schisandrin A 5.5 mg/kg oral
[4] = Group 4, Schisandrin A 11.0 mg/kg oral
[5] = Group 5, Schisandrin A 22.0 mg/kg oral
[6] = Group 6, Schisandrin A 44.0 mg/kg oral
[7] = Group 7, Schisandrin A 88.0 mg/kg oral

CC1=C(O)C(=O)C=C2C1=CC=C1[C@@]2(C)CC[C@@]2(C)[C@@H]3C[C@](C)(C(=O)O)CC[C@]3(C)CC[C@]12C [celastrol]
Serum ALT [1]: 54.5 ± 6.7 U/L | Serum AST [1]: 100.0 ± 7.0 U/L | Serum creatinine [1]: 0.48 ± 0.01 mg/dL | Serum urea [1]: 19.6 ± 2.7 mg/dL | Serum ALT [2]: 51.2 ± 3.5 U/L | Serum AST [2]: 92.0 ± 6.0 U/L | Serum creatinine [2]: 0.49 ± 0.05 mg/dL | Serum urea [2]: 20.1 ± 1.8 mg/dL | Serum ALT [3]: 54.5 ± 5.7 U/L | Serum AST [3]: 91.0 ± 4.0 U/L | Serum creatinine [3]: 0.48 ± 0.02 mg/dL | Serum urea [3]: 19.4 ± 2.5 mg/dL | Serum ALT [4]: 52.5 ± 5.8 U/L | Serum AST [4]: 91.0 ± 9.0 U/L | Serum creatinine [4]: 0.49 ± 0.02 mg/dL | Serum urea [4]: 18.3 ± 1.5 mg/dL | Serum ALT [5]: 49.3 ± 6.1 U/L | Serum AST [5]: 106.0 ± 14.0 U/L | Serum creatinine [5]: 0.50 ± 0.02 mg/dL | Serum urea [5]: 16.5 ± 1.5 mg/dL | Serum ALT [6]: 52.4 ± 8.3 U/L | Serum AST [6]: 111.0 ± 40.0 U/L | Serum creatinine [6]: 0.49 ± 0.01 mg/dL | Serum urea [6]: 17.9 ± 4.0 mg/dL | Serum ALT [7]: 53.4 ± 7.1 U/L | Serum AST [7]: 92.0 ± 9.0 U/L | Serum creatinine [7]: 0.49 ± 0.03 mg/dL | Serum urea [7]: 18.8 ± 3.4 mg/dL
